Key:
[1] = Plasma concentrations of oxycodone, oxymorphone, noroxycodone, naltrexone and 6β-naltrexol by solid phase extraction LC-MS/MS
Source text: Patients with moderate-to-severe pain due to osteoarthritis of the hip or knee were randomly assigned to one of four treatment groups as shown in Table 3 of Example 1. Plasma samples were obtained for each patient at the beginning of Weeks 1, 2, 3 and at the end of dosing during Week 3.
For the analysis of linearity and dose proportionality, linear equation coefficients were obtained by averaging patient-specific slopes and intercepts obtained by within-patient least squares regression. This was done to account for the correlation among the repeated measurements due to the patient's contributing data at each dose level. The resulting slopes among treatment groups were compared by one-way analysis of variance (ANOVA), and a one-sample t-test assessed the common slope's difference from zero. A measure of deviation from linearity was constructed as the difference between the concentration at the middle dose versus the average of the concentrations at the lower and higher doses. Due to equal spacing of doses, this measure has expectation zero under the hypothesis of linearity. As above, ANOVA and t-tests were used to assess linearity.
To achieve symmetry, modified log transformations were used.

[2] = system: patients with moderate to severe chronic pain due to osteoarthritis of the hip or knee; test: Emax composite model of 6β-naltrexol plasma concentration versus percent change in pain intensity; settings: for EC51 Estimate / EC52 Estimate / Emax1 Estimate / Emax2 Estimate: WinNonlin
Experimental: As discussed in more detail below, the percent change in pain intensity was the drug effect used in a modeling analysis of plasma concentration vs. drug effect.
The plasma concentration-effect data were fit to the Emax composite model using the software program WinNonlin®(commercially available from Pharsight Corporation of Mountain View, Calif.) and the command files developed by Gabrielsson et al. The plasma concentration-effect data represented as circles in FIG. 11 were evaluated mathematically and the plasma concentration-effect curve shown in FIG. 11 was determined by the program and command files. Similarly, the program and command files were used to determine the plasma concentration-effect curve shown in FIG. 12 based on the data represented as circles in FIG. 12.
The computer output (printout) of this process included EC51 and EC52 parameters, as well as parameters reflecting statistical evaluation of the data, such as coefficient of variation (CV %).
These parameters are based on the data for 6β-naltrexol plasma concentrations and reduction in pain from baseline pain intensity to final pain intensity from all subjects for whom plasma concentration data was obtained as described herein. These parameters are based on data from subjects receiving the BID dosing regimens and subjects receiving the QID dosing regimen. Estimate refers to the value estimated by the WinNonlin® program and command file for relating plasma concentrations to the pharmacodynamic effects such as percent reduction in pain intensity.
These parameters are based on the data (6β-naltrexol plasma concentrations and percent reduction in pain intensity) for subjects receiving BID dosing regimens.

[3] = naltrexone hydrochloride in solution mixed with croscarmellose sodium in suspension; cited from earlier work
[4] = Total (BID and QID) data, curve of FIG. 11

Oc1ccc2c3c1O[C@H]1[C@H](O)CC[C@@]4(O)[C@@H](C2)N(CC2CC2)CC[C@]314 [6β-naltrexol]
Plasma concentrations over the course of the study (sampled at the end of each treatment week) ([1]; FIG. 7, combination drug BID and QID): remained constant throughout the study
EC51 Estimate ([2]; BID data, curve of FIG. 12): 14.0 pg/mL
EC52 Estimate ([2]; BID data, curve of FIG. 12): 0.422 pg/mL
Emax1 Estimate ([2]; BID data, curve of FIG. 12): 27.0 units
Emax2 Estimate ([2]; BID data, curve of FIG. 12): 76.3 units
EC52 parameter, 6β-naltrexol plasma concentration ([2]; Emax composite model, total (BID and QID) data, Table 26, effect = percent reduction in pain intensity, 6β-naltrexol as surrogate for naltrexone): about 0.439 μg/ml
EC51 Estimate [2, 4]: 14.4 pg/mL
EC52 Estimate [2, 4]: 0.439 pg/mL
Emax1 Estimate [2, 4]: 26.8 units
Emax2 Estimate [2, 4]: 79.7 units

O=C1CC[C@@]2(O)[C@H]3Cc4ccc(O)c5c4[C@@]2(CCN3CC2CC2)[C@H]1O5 [naltrexone]
Fraction of naltrexone hydrochloride bound by croscarmellose sodium [3]: more than 90%

CN1CC[C@]23c4c5ccc(O)c4O[C@H]2C(=O)CC[C@@]3(O)[C@H]1C5 [oxymorphone]
Mean plasma concentration versus dose level over the course of the study ([1]; FIGS. 1 and 2): increased linearly with increasing dose levels
Plasma concentration of oxymorphone (ng/mL) versus dose of oxycodone (mg/day): slope of linear equation ([1]; average of patient-specific regressions, slope p<0.001, t-test): 0.007153
Plasma concentration of oxymorphone versus dose of oxycodone (mg/day): intercept of linear equation ([1]; average of patient-specific within-patient least squares regressions, all active treatments): 0.0607 ng/mL
